# Where two headings read alike, the source gives them in different places.
# Assays:
# [1] = target: HDAC2 (Homo sapiens, UniProt Q92769); details: read-out: IC50 HDAC2
# Method: (§2) The HDAC inhibitory activity was determined by fluorescence-coupled acetylated peptide substrate assay (Lys-Ac-AMC). HDAC1 protein was purchased from BPS Bioscience, and the reaction buffer system was a modified tris(hydroxymethyl)aminomethane buffer (pH 7.0). The small molecule compounds of the present invention were prepared by being dissolved in 100% DMSO. HDAC was prepared in a buffer at a certain concentration as an enzyme solution; trypsin and fluorescent group 4-amino-7-coumarin coupled-acetylated peptide (Ac-peptide) substrate were prepared in a buffer at a certain concentration as a substrate solution. The compounds were added into the reaction wells in a 384-well plate at a designed concentration of 10 μM, 1 μM, 0.5 μM, 0.1 μM, 0.05 μM, 0.01 μM, 0.005 μM, 0.001 μM, and 0.00005 μM, respectively, and then 15 μl of the HDAC solution was added into the reaction wells (15 μl of blank buffer to the control well). […] The results were analyzed by GraphPad Prism software and IC50 values were calculated according to the formula: Y=Background Data+(Top Data−Background Data)/(1+10^((Log IC50−X) a curve slope)), where Y: the inhibition rate (%) and X: the concentration of the compound.
# [2] = tested on: Ovarian cancer A2780s; assay: Cell proliferative activity (MTT / cck-8); format: cell-based; details: Homo sapiens, read-out: Half-Inhibitory Concentration IC50 A2780s
# [3] = tested on: Colon cancer HCT116; assay: Cell proliferative activity (MTT / cck-8); format: cell-based; details: Homo sapiens, HCT-116, read-out: Half-Inhibitory Concentration IC50 HCT116
# [4] = target: T1, HDAC1 (Homo sapiens, UniProt Q13547); assay: HDAC inhibitory activity, fluorescence-coupled acetylated peptide substrate assay (Lys-Ac-AMC); format: biochemical
# T1 construct: purchased BPS Bioscience
# T1 sequence (Q13547 whole entry): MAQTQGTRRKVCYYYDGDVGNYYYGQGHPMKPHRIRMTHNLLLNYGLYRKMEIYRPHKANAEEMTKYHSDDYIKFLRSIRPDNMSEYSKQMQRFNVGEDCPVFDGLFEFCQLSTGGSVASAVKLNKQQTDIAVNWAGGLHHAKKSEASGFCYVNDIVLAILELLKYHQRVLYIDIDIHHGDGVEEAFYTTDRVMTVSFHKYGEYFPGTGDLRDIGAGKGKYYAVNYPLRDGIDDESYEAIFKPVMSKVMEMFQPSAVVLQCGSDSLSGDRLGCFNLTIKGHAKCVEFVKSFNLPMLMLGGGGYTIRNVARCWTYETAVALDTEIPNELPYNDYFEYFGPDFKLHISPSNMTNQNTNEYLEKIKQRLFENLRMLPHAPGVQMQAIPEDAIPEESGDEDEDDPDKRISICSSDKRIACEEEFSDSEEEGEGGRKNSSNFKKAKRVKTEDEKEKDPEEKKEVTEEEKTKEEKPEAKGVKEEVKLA
# Method: as §2
# [5] = target: T2, HDAC8 (Homo sapiens, UniProt Q9BY41); assay: HDAC inhibitory activity, fluorescence-coupled acetylated peptide substrate assay
# T2 sequence (Q9BY41 1-377): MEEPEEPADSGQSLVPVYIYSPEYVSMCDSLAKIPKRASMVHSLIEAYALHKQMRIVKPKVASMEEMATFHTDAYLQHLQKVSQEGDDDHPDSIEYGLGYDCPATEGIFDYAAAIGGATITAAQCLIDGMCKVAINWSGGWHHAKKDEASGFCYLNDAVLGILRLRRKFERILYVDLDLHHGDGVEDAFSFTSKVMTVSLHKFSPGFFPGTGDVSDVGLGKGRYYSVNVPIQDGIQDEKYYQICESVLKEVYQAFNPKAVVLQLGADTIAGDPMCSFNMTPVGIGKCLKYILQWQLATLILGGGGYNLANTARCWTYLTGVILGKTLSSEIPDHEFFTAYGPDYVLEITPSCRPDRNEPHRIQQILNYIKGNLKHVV
# Method: as §2
# [6] = tested on: Leukemia MV4-11; assay: Cell proliferative activity (MTT / cck-8); format: cell-based; details: Homo sapiens, read-out: Half-Inhibitory Concentration IC50 MV4-11
# Procedure, shortened: (§1)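 Logarithmic-phase tumor cells were plated at 2000-3000 cells/well in 96-well plates, adherent lines allowed to attach. Proliferation was read by MTT for solid-tumor lines and by CCK-8 for hematologic lines.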
# [7] = tested on: Multiple myeloma U266; assay: Cell proliferative activity (MTT / cck-8); format: cell-based; details: Homo sapiens, U-266, read-out: Half-Inhibitory Concentration IC50 U266
# Procedure, shortened: as §1
# [8] = tested on: Human ovarian cancer cell SKOV-3; assay: Cell proliferative activity (MTT / cck-8); format: cell-based
# Procedure, shortened: as §1
# [9] = tested on: Human lung cancer cell H460; assay: Cell proliferative activity (MTT / cck-8); format: cell-based
# Procedure, shortened: as §1
# [10] = tested on: Human melanoma A375; assay: Cell proliferative activity (MTT / cck-8); format: cell-based; details: A-375, incubated for 96 hours, read-out: Half-Inhibitory Concentration IC50 Human melanoma A375
# Procedure, shortened: as §1
# [11] = tested on: Human liver cancer cell HepG2; assay: Cell proliferative activity (MTT / cck-8); format: cell-based
# Procedure, shortened: as §1
# [12] = tested on: Human cervical cancer cell Hela; assay: Cell proliferative activity (MTT / cck-8); format: cell-based
# Procedure, shortened: as §1
# [13] = tested on: Multiple myeloma RPMI8226; assay: Cell proliferative activity (MTT / cck-8); format: cell-based; details: Homo sapiens, RPMI-8226, read-out: Half-Inhibitory Concentration IC50 RPMI8226
# Procedure, shortened: as §1
# [14] = tested on: Leukemia K562; assay: Cell proliferative activity (MTT / cck-8); format: cell-based; details: Homo sapiens, read-out: Half-Inhibitory Concentration IC50 K562
# Procedure, shortened: as §1
# [15] = tested on: B-cell lymphoma Ramos; assay: Cell proliferative activity (MTT / cck-8); format: cell-based; details: Homo sapiens, read-out: Half-Inhibitory Concentration IC50 Ramos
# Procedure, shortened: as §1
# [16] = Assay on the bioavailability in SD rats (plasma, LC-MS/MS); format: in vivo; details: for Area under the curve / Clearance rate / Distribution volume / Half-life / Maximum plasma concentration: dose 12 mg/kg (Table 6)
# [17] = tested on: HCT116 cells; assay: Therapeutic effect on the colon cancer HCT116 model (intravenous)
# [18] = tested on: HBL-1 cells; assay: Therapeutic effect on the B-cell lymphoma HBL-1 subcutaneous tumor model; format: in vivo, NOD/SCID mice; details: HBL-1 model, 9 times, vs solvent group
# [19] = tested on: Colon cancer HT29; assay: Cell proliferative activity (MTT / cck-8); format: cell-based; details: Homo sapiens, HT-29, read-out: Half-Inhibitory Concentration IC50 HT29
# [20] = tested on: Lung cancer A549; assay: Cell proliferative activity (MTT / cck-8); format: cell-based; details: Homo sapiens, read-out: Half-Inhibitory Concentration IC50 A549
# [21] = target: HDAC10 (Homo sapiens, UniProt Q969S8); details: read-out: IC50 HDAC10; Table 4, Class IIb
# HDAC10, sequence (Q969S8 whole entry): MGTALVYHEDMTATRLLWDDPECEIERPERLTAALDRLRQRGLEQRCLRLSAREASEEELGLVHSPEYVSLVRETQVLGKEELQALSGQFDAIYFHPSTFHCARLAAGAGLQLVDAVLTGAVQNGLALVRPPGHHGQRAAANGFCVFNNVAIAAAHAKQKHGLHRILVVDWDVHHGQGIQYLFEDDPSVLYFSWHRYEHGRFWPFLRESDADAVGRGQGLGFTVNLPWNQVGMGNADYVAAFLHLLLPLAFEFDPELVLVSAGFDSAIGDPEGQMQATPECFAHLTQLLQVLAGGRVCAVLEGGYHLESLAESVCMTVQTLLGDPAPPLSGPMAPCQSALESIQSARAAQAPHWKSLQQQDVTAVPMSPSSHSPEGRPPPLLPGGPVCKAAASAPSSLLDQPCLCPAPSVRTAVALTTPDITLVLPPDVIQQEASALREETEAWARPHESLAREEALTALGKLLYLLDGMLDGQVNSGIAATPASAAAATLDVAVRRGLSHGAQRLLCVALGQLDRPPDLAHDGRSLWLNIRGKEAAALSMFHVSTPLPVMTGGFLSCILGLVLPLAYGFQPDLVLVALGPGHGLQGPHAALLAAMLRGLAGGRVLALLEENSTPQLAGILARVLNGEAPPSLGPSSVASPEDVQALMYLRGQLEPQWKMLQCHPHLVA
# Method: as §2
# [22] = tested on: MV4-11 cells; assay: Therapeutic effect on the MV4-11 acute myeloid leukemia model; format: in vivo, NOD/SCID mice; details: MV4-11 model, 50 mg/kg intravenously once every other day, 12 times
# [23] = tested on: A2780s cells; details: A2780s model, 16 times; for tumor inhibitory rate: vs solvent group
# [24] = 50 mg/kg intragastrically once every other day
# HDAC2, sequence (Q92769 whole entry): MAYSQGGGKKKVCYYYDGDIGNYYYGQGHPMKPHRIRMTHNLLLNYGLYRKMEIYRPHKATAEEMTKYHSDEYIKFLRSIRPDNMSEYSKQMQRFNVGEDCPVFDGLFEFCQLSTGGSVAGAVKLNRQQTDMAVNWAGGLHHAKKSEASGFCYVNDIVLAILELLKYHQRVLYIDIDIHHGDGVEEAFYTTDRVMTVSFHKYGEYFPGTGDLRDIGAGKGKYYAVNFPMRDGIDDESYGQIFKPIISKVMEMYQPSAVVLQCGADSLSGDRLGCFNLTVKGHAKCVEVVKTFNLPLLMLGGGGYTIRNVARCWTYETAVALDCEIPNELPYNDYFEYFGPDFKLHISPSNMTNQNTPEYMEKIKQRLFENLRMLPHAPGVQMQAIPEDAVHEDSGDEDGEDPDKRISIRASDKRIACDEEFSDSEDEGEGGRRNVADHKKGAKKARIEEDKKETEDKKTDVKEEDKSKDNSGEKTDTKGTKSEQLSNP
compound,measurement,setting,value
"COc1ccc(N(C)c2nc(C)nc3ccccc23)cc1OCCCC(=O)NO [III-2, N-hydroxy-4-(2-methoxy-5-(methyl(2-methyl-4-quinazolinyl)amino)phenoxy) butanamide]",IC50,[1],386 ± 7 nM
same,IC50,[2],46 ± 11 nM
same,IC50,[3],35 ± 21 nM
same,IC50,[4]; Table 2,100 to 1000 nM
same,IC50,"[4]; Table 4, Class I",422 ± 1 nM
same,IC50,"[5]; IC50 HDAC8, Table 2",> 1 µM
same,IC50,"[5]; read-out: IC50 HDAC8, Table 4, Class I",3.4 ± 0.487 µM
same,IC50,[6],60 ± 32 nM
same,IC50,[7],14 ± 6 nM
same,IC50,"[8]; SK-OV-3, Ovarian cancer, Table 5, read-out: Half-Inhibitory Concentration IC50 SKOV-3",50 ± 8 nM
same,IC50,"[8]; SK-OV-3, incubated for 96 hours, read-out: Half-Inhibitory Concentration IC50 Human ovarian cancer cell SKOV-3",10 to 100 nM
same,IC50,"[9]; NCI-H460, Lung cancer, Table 5, read-out: Half-Inhibitory Concentration IC50 H460",55 ± 13 nM
same,IC50,"[9]; NCI-H460, incubated for 96 hours, read-out: Half-Inhibitory Concentration IC50 Human lung cancer cell H460",10 to 100 nM
same,IC50,[10],10 to 100 nM
same,IC50,"[11]; Liver cancer, Table 5, read-out: Half-Inhibitory Concentration IC50 HepG2",41 ± 1 nM
same,IC50,"[11]; incubated for 96 hours, read-out: Half-Inhibitory Concentration IC50 Human liver cancer cell HepG2",10 to 100 nM
same,IC50,"[12]; Cervical cancer, Table 5, read-out: Half-Inhibitory Concentration IC50 Hela",49 ± 20 nM
same,IC50,"[12]; incubated for 96 hours, read-out: Half-Inhibitory Concentration IC50 Human cervical cancer cell Hela",10 to 100 nM
same,IC50,[13],15 ± 4 nM
same,IC50,[14],63 ± 18 nM
same,IC50,[15],71 ± 31 nM
same,Area under the curve,[16]; intravenous administration,2434.117 μg/L · h
same,Clearance rate,[16]; intravenous administration,7.008 L/h/kg
same,Distribution volume,[16]; intravenous administration,61.263 L/kg
same,Half-life,[16]; intravenous administration,7.658 h
same,Maximum plasma concentration,[16]; intravenous administration,2213.217 µg/L
same,Bioavailability,[16]; oral administration,47.0%
same,Area under the curve,[16]; oral administration,1242.234 μg/L · h
same,Clearance rate,[16]; oral administration,12.877 L/h/kg
same,Distribution volume,[16]; oral administration,154.811 L/kg
same,Half-life,[16]; oral administration,9.62 h
same,Maximum plasma concentration,[16]; oral administration,238.133 µg/L
same,survival time of mice,"[17]; 50 mg/kg intravenously once every other day, 9 times, vs blank control, P<0.01",significantly prolonged the survival time of mice
same,effect prolonging the survival time compared with positive control group,"[17]; 50 mg/kg intravenously, SAHA 50 mg/kg intraperitoneally",superior to that of the positive control group
same,tumor inhibitory rate,[18]; 10 mg/kg intragastrically once every other day,31.70%
same,tumor inhibitory rate,[18]; 20 mg/kg intragastrically once every other day,25.23%
same,tumor inhibitory rate,[18]; 40 mg/kg intragastrically once every other day,58.22%
same,tumor inhibitory rate,[18]; 80 mg/kg intragastrically once every other day,56.88%
same,IC50,[19],72 ± 37 nM
same,IC50,[20],104 ± 29 nM
same,IC50,[21],1180 ± 168 nM
same,activity compared with positive control SAHA,[22],superior to that of the positive control group SAHA
same,tumor growth,"[22]; compared with blank control, P<0.01",significantly inhibited tumor growth
same,tumor inhibitory rate,[23]; 12.5 mg/kg intragastrically once every other day,78.49%
same,tumor inhibitory rate,[23]; 25 mg/kg intragastrically once every other day,82.02%
same,death of mice during the experiment,[23]; [24],one mouse died
same,tumor inhibitory rate,[23]; [24],81.70%
